Source: patent US20120190703A1, “SALTS OF 13A-(S)DESOXYTYLOPHORININE, PREPARATION METHODS AND PHARMACEUTICAL COMPOSITIONS AND USES THEREOF” (priority 2009, published 2012)
Like-named read-outs stand apart in the source and are kept apart here. Marks after values point to notes of the source that are not given here.

Legend:
mice H22 liver cancer = conditions: background art; cited from earlier work
Solubility in water = format: physicochemical
mice Lewis lung cancer = conditions: background art; cited from earlier work
[1] = preliminary toxic experiments, background art; cited from earlier work
H22 tumor-bearing mice = conditions: intragastric once daily
Source text: To determine the pharmacodynamic characters of 13a-(S)-deoxytylophorinine and its salts, the impact of these compounds to the tumor growth in H22 tumor-bearing mice was surveyed.
Male Kunming mice were obtained from the Laboratory Animal Center, Academy of Military Medical Science. Body weight 18˜22 g. 6 animals per group, totally 10 groups, 60 animals.
(+)-13a-(S)-deoxytylophorinine, (+)-13a-(S)-deoxytylophorinine Tartrate, (+)-13a-(S)-deoxytylophorinine Maleate, (+)-13a-(S)-deoxytylophorinine Citrate, Cytoxane (CTX) as positive control.
(+)-13a-(S)-deoxytylophorinine was administered at high dose (5 mg/kg) and low dose (2.5 mg/kg). Three (+)-13a-(S)-deoxytylophorinine salts were administered at high dose and low dose as equal moles with their prototype (Tartrate: 7.05 mg/kg, 3.53 mg/kg; Malate: 6.60 mg/kg, 3.30 mg/kg; Citrate: 7.90 mg/kg, 3.95 mg/kg).
Animals were reared in SPF grade circumstance to be observed for 24 h. The tumor cells liquid which resuscitated in abdominal cavity of KM mice was diluted with aseptic normal saline at 1:3 ratio. The resulting liquid was inoculated subcutaneously at forelimb with 0.2 mL every animal. After the injection over, the animals were divided to […] with 6 animals per group.
Four experimental samples were intragastric administered once daily 24 h after inoculation. The positive control CTX was intraperitoneal injected once daily. The animal body weight was recorded every day.

[2] = Plasma pharmacokinetics after oral administration in mice; conditions: plasma
Description: To determine the pharmacokinetic characters of 13a-(S)-deoxytylophorinine and its salts, the studies about plasma pharmacokinetics and the character of distribution in brain were pursued.
Male ICR mice. Body weight 18˜22 g.
(+)-13a-(S)-deoxytylophorinine Tartrate, (+)-13a-(S)-deoxytylophorinine Maleate, (+)-13a-(S)-deoxytylophorinine Citrate. All were dissolved in distilled water as 0.6 mg/ml solution before experiment progressed.
72 mice were divided to 3 groups with 24 animals per group, fasting for 16 h and drinking water freely. […] Plasma was isolated by centrifugalization. After the salts were administered orally, the brain tissues of mice were collected at 5 min, 15 min, 2 h time points. 25% tissue homogenate was prepared with normal saline addition. 200 μL of homogenate and plasma were added isovolumic MeCN to precipitate protein. 5 μL of clear supernatant was analyzed by LC/MS/MS.
(+)-13a-(S)-deoxytylophorinine was dissolved in DMSO and then diluted with MeOH with concentration 10, 50, 100, 500, 1000 and 2500 ng/ml respectively. 10 μl of standard solutions of (+)-13a-(S)-deoxytylophorinine with different concentration above were added to 200 μl of blank plasma sequently to adjust the concentration to 0.5, 2.5, 5, 25, 50, 125 ng/ml respectively. MeCN was added to the solution to precipitate protein, and 5 μl of result clear supernatant was analyzed with LC/MS/MS. Linear regression was ran with the peak area of (+)-13a-(S)-deoxytylophorinine as ordinate and the concentrations as abscissa.

[3] = system: Hct8 human colon cancer cell; assay: Cytotoxic activity assay (MTT), Hct8; format: cell-based; conditions: HCT-8, 120 h, 5 days
Description: (§1) To evaluate the in vitro antitumor activity of (+)-13a-(S)-Deoxytylophorinine salts in this invention, Cytotoxic activity assay (MTT) experiment was persued.
(§2) 1. Tumor cells at log phase were incubated on 96-well plates at a density of 1˜1.0×10^4 cells/ml, 100 μl/well. Cells were cultured for 24 h at 37° C. in a cell incubator with 5% CO2.
(§3) 2. The treatment cells were exposed to the tested agents at different concentrations and cultured for 5 days in a cell incubator with full humidity incubator.
(§4) 3. The incubation medium was removed, then 100 μl 0.04% MTT was added to each well and Cells were cultured for 4 hours under the same conditions.
(§5) 4. The incubation medium was removed, then 150 μl DMSO was added to each well, the absorbance at a reference wavelength of 450 nm and a test wavelength of 570 nm was read. Drug inhibitory rate was calculated.

[4] = system: Bel7402 human liver cancer cell; assay: Cytotoxic activity assay (MTT), Bel7402; format: cell-based; conditions: Bel-7402, 120 h, 5 days
Description: as §1, §2, §3, §4, §5

[5] = high dose × 7 d, equal moles: prototype 5.0, tartrate 7.05, maleate 6.60, citrate 7.90 mg/kg
[6] = low dose × 7 d, equal moles: prototype 2.5, tartrate 3.53, maleate 3.30, citrate 3.95 mg/kg

## COc1ccc2c3c(c4cc(OC)c(OC)cc4c2c1)CN1CCC[C@H]1C3 [(+)-13a-(S)-deoxytylophorinine, reference compound]
Mice H22 liver cancer
  Anti-tumor proliferative activity, mice H22 liver cancer: notable anti-tumor proliferative activity
Solubility in water
  Solubility in water: Insoluble
Solubility in water; statement in text, listed as 13a-(S)-Deoxytylophorinine
  Solubility in water (words): insoluble in water
Solubility in water; statement in text, listed as (+)-13a-(S)-Deoxytylophorinine
  Solubility in water (words): can not be dissolved in water
Mice Lewis lung cancer
  Anti-tumor proliferative activity, mice Lewis lung cancer: notable anti-tumor proliferative activity
[1]
  Toxicity in the liver and kidney: not toxic in the liver and kidney
H22 tumor-bearing mice; [5]
  Animal No. (Initial/Final): 6/4
  Body Weight(g) Final: 15.63 ± 2.16 g
  Body Weight(g) Initial: 23.50 ± 2.51 g⁻¹
  Inhibition (%): 74.02** %
  Tumor Weight (g, mean ± SD): 0.30 ± 0.12 g
H22 tumor-bearing mice; [6]
  Animal No. (Initial/Final): 6/6
  Body Weight(g) Final: 23.31 ± 2.14 g
  Body Weight(g) Initial: 23.00 ± 1.55 g⁻¹
  Inhibition (%): 42.79* %
  Tumor Weight (g, mean ± SD): 0.66 ± 0.21 g
[2]; 6 mg/kg oral, mice, non-compartment model
  t½z: 26.4 min
[2]; male, ICR, mouse, po, 6 mg/kg
  AUC(0-inf): 33.7 ng·h/mL
  AUC(0-t): 33.3 ng·h/mL
  Cmax: 41.5 ng/mL
  MRT inf: 48 min
  MRT last: 46.2 min
  Tmax: 15 min

## CC(O)C(=O)O.COc1ccc2c3c(c4cc(OC)c(OC)cc4c2c1)CN1CCC[C@H]1C3 [Lactate, (+)-13a-(S)-deoxytylophorinine Lactate]
[3]
  IC50: 79 nM
Solubility in water
  Solubility in water (words): soluble in water
Solubility in water; water
  solubility: 120 mg/mL
[4]
  IC50: 40 nM
